Test results as given in patent publication US9561212B2, “Hepatitis C virus inhibitors” (BRISTOL-MYERS SQUIBB COMPANY, priority 2012, dated 2017).

These compounds were tested on HCV 1b genotype (assay: microbe, parasite or virus in culture). Conditions: HCV 1b replicon; read-out: Range: EC50 ranges against HCV 1b.
Type: cell-based, Hepatitis C virus
Experimental: An HCV Replicon assay was utilized in the present disclosure, and was prepared, conducted and validated as described in commonly owned PCT/US2006/022197 and in O'Boyle et. al. Antimicrob Agents Chemother. 2005 April; 49(4):1346-53. Assay methods incorporating luciferase reporters have also been used as described (Apath.com).
HCV-neo replicon cells and replicon cells containing resistance substitutions in the NS5A region were used to test the currently described family of compounds.
Work on `COC(=O)NC(C(=O)N1[C@@H](C)CC[C@H]1c1ncc(-c2ccc(-c3ccc(-c4cnc([C@@H]5CC[C@H](C)N5C(=O)C(NC(=O)OC)C5CCOC6(CCC6)C5)[nH]4)cc3)cc2)[nH]1)C1CCOC2(CCC2)C1` (single isomer, unassigned) [Example 2.1] yielded an EC50 of 0.9 to 700 nM. Compound `COC(=O)NC(C(=O)N1[C@@H](C)CC[C@H]1c1ncc(-c2ccc(-c3ccc(-c4cnc([C@@H]5CC[C@H](C)N5C(=O)C(NC(=O)OC)C5CCOC6(CCC6)C5)[nH]4)cc3)cc2)[nH]1)C1CCOC2(CCC2)C1` (single isomer, unassigned) [Example 2.2] has an EC50 of 0.9 to 700 nM. With `COC(=O)NC(C(=O)N1[C@@H](C)CC[C@H]1c1ncc(-c2ccc(-c3ccc(-c4cnc([C@@H]5CC[C@H](C)N5C(=O)C(NC(=O)OC)C5CCOC6(CCC6)C5)[nH]4)cc3)cc2)[nH]1)C1CCOC2(CCC2)C1` (single isomer, unassigned) [Example 2.4] the EC50 was 0.00501 to 0.1 nM. With `COC(=O)NC(C(=O)N1[C@@H](C)CC[C@H]1c1ncc(-c2ccc(-c3ccc(-c4cnc([C@@H]5CC[C@H](C)N5C(=O)C(NC(=O)OC)C5CCOC6(CCCC6)C5)[nH]4)cc3)cc2)[nH]1)C1CCOC2(CCCC2)C1` (single isomer, unassigned) [Example 3.1] the EC50 was 0.9 to 700 nM. `COC(=O)NC(C(=O)N1[C@@H](C)CC[C@H]1c1ncc(-c2ccc(-c3ccc(-c4cnc([C@@H]5CC[C@H](C)N5C(=O)C(NC(=O)OC)C5CCOC6(CCCC6)C5)[nH]4)cc3)cc2)[nH]1)C1CCOC2(CCCC2)C1` (single isomer, unassigned) [Example 3.2] showed an EC50 of 0.9 to 700 nM. `COC(=O)NC(C(=O)N1[C@@H](C)CC[C@H]1c1ncc(-c2ccc(-c3ccc(-c4cnc([C@@H]5CC[C@H](C)N5C(=O)C(NC(=O)OC)C5CCOC6(CCCC6)C5)[nH]4)cc3)cc2)[nH]1)C1CCOC2(CCCC2)C1` (single isomer, unassigned) [Example 3.3] showed an EC50 of 0.00501 to 0.1 nM. `COC(=O)NC(C(=O)N1[C@@H](C)CC[C@H]1c1ncc(-c2ccc(-c3ccc(-c4cnc([C@@H]5CC[C@H](C)N5C(=O)C(NC(=O)OC)C5CCOC6(CCCC6)C5)[nH]4)cc3)cc2)[nH]1)C1CCOC2(CCCC2)C1` (single isomer, unassigned) [Example 3.4] gave an EC50 of 0.00501 to 0.1 nM. `COC(=O)NC(C(=O)N1[C@@H]2C[C@@H]2C[C@H]1c1nc(-c2ccc(-c3ccc(-c4c[nH]c([C@@H]5C[C@H]6C[C@H]6N5C(=O)C(NC(=O)OC)C5[C@H]6COC[C@@H]56)n4)cc3)cc2)c[nH]1)C1[C@H]2COC[C@@H]12` (single isomer, unassigned; diastereomer 1) [QC4.1] was tested, and the EC50 was 0.00501 to 0.1 nM. Compound `COC(=O)NC(C(=O)N1[C@@H]2C[C@@H]2C[C@H]1c1nc(-c2ccc(-c3ccc(-c4c[nH]c([C@@H]5C[C@H]6C[C@H]6N5C(=O)C(NC(=O)OC)C5C[C@@H]6[C@H](C5)C6(F)F)n4)cc3)cc2)c[nH]1)C1C[C@@H]2[C@H](C1)C2(F)F` (single isomer, unassigned; diastereomer 2) [QC2.2] has an EC50 of 0.00501 to 0.1 nM.

Same assay, conditions: Hepatitis C virus, HCV 1b replicon; read-out: 1b (μM): EC50 (Effective 50% inhibitory concentration) against the HCV 1b genotype
`COC(=O)NC(C(=O)N1[C@@H](C)CC[C@H]1c1ncc(-c2ccc(-c3ccc(-c4cnc([C@@H]5CC[C@H](C)N5C(=O)C(NC(=O)OC)C5CCOC6(CCC6)C5)[nH]4)cc3)cc2)[nH]1)C1CCOC2(CCC2)C1` (single isomer, unassigned) [Example 2.3] gave an EC50 of 0.00488 nM. In the case of `COC(=O)NC(C(=O)N1[C@@H](C)CC[C@H]1c1ncc(-c2ccc(-c3ccc(-c4cnc([C@@H]5CC[C@H](C)N5C(=O)C(NC(=O)OC)C5CCOC6(CCCC6)C5)[nH]4)cc3)cc2)[nH]1)C1CCOC2(CCCC2)C1` (single isomer, unassigned) [Example 3.3], the EC50 is reported as 0.00504 nM.

Same assay, conditions: Hepatitis C virus, HCV 1b replicon; read-out: Range: EC50 ranges against HCV 1b
Compound `COC(=O)N[C@H](C(=O)N1C(CO)CCC1c1ncc(-c2ccc(-c3ccc(-c4cnc(C5CCC(CO)N5C(=O)[C@@H](NC(=O)OC)C5C[C@@H](C)O[C@H](C)C5)[nH]4)cc3)cc2)[nH]1)C1C[C@@H](C)O[C@H](C)C1` (single isomer, unassigned) [Example 11.1] has an EC50 of 0.9 to 700 nM. In the case of `COC(=O)N[C@H](C(=O)N1[C@@H](CO)CC[C@H]1c1ncc(-c2ccc(-c3ccc(-c4cnc([C@@H]5CC[C@H](CO)N5C(=O)[C@@H](NC(=O)OC)C5C[C@@H](C)O[C@H](C)C5)[nH]4)cc3)cc2)[nH]1)C1C[C@@H](C)O[C@H](C)C1` (single isomer, unassigned) [Example 11], the EC50 is reported as 0.9 to 700 nM.
